Experimental data: the supplement of paper PMC10307832

Compound: COC1=C(C=C(C=C1)C2=CC3=NC=CN3C(=N2)NC4=C(C=CC=N4)C(=O)N)OC [BAY61-3606] + Cc1nc(NC(=O)N2CCC[C@H]2C(N)=O)sc1-c1ccnc(C(C)(C)C(F)(F)F)c1 [Alpelisib] (partner 2 µM)
Assay: relative viability (nuclei count vs DMSO), 5 days (fraction); higher = more cells survive
Conditions: first compound 2 µM
Summary of the method: (§1)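 Values are medians from duplicate plates. Each reflects relative viability, defined as the nuclei count of treated wells over that of vehicle wells. Lung cancer cell lines in 1536-well plates were pin-tool dosed one day after seeding with one drug alone or with a fixed anchor-drug dose plus five library-drug doses (not always all listed) in √10 steps, then fixed, stained and imaged at 4× after 5 days.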

Question: Which relative viability does the source give for NCI-H460 here?
Answer: 0.174

Compound: COc1cccc2c1C(=O)c1c(O)c3c(c(O)c1C2=O)C[C@@](O)(C(=O)CO)C[C@@H]3O[C@H]1C[C@H](N)[C@H](O)[C@H](C)O1 [Doxorubicin] + CC(=O)Nc1cccc(-n2c(=O)n(C3CC3)c(=O)c3c(Nc4ccc(I)cc4F)n(C)c(=O)c(C)c32)c1 [Trametinib] (partner 0.02 µM)
Assay: as above
Conditions: first compound 0.001 µM
Summary of the method: as §1

Question: Which relative viability does the source give for LU99A here?
Answer: 0.521

Question: Which relative viability does the source give for NCI-H358 here?
Answer: 0.164

Question: Which relative viability does the source give for NCI-H322M here?
Answer: 0.478

Question: With LXF-289 as the cell line, how does the relative viability read?
Answer: 0.666

Question: For BEN, which relative viability is on record?
Answer: 1.02

Question: For HARA, which relative viability is on record?
Answer: 0.544

Question: For HCC-827, which relative viability is on record?
Answer: 0.549

Question: How did the relative viability turn out when NCI-H520 was run?
Answer: 0.706

Question: For NCI-H2023, which relative viability is on record?
Answer: 0.456

Question: With A-427 as the cell line, how does the relative viability read?
Answer: 0.782

Question: Which relative viability does the source give for NCI-H647 here?
Answer: 0.449

Question: With PC-3 [JPC-3] as the cell line, how does the relative viability read?
Answer: 0.614

Question: How did the relative viability turn out when NCI-H1755 was run?
Answer: 0.791

Question: NCI-H650 was tested. Which relative viability did it give?
Answer: 0.98

Question: With NCI-H3122 as the cell line, how does the relative viability read?
Answer: 0.201

Question: For NCI-H441, which relative viability is on record?
Answer: 0.426

Question: How did the relative viability turn out when NCI-H1395 was run?
Answer: 0.929

Question: Which relative viability does the source give for 201T here?
Answer: 0.699

Question: How did the relative viability turn out when NCI-H1975 was run?
Answer: 0.256

Question: With HOP-62 as the cell line, how does the relative viability read?
Answer: 0.373

Question: How did the relative viability turn out when NCI-H2405 was run?
Answer: 0.595

Question: How did the relative viability turn out when NCI-H1355 was run?
Answer: 0.457

Question: With NCI-H838 as the cell line, how does the relative viability read?
Answer: 0.515

Question: With CAL-12T as the cell line, how does the relative viability read?
Answer: 0.381

Question: Which relative viability does the source give for EPLC-272H here?
Answer: 0.278

Question: How did the relative viability turn out when NCI-H2347 was run?
Answer: 0.197

Question: NCI-H1915 was tested. Which relative viability did it give?
Answer: 0.306

Question: How did the relative viability turn out when NCI-H1437 was run?
Answer: 0.564

Question: How did the relative viability turn out when NCI-H460 was run?
Answer: 0.138

Same assay, conditions: first compound 0.003162 µM

Question: LU99A was tested. Which relative viability did it give?
Answer: 0.614

Question: NCI-H358 was tested. Which relative viability did it give?
Answer: 0.138

Question: Which relative viability does the source give for NCI-H322M here?
Answer: 0.565

Question: LXF-289 was tested. Which relative viability did it give?
Answer: 0.697

Question: Which relative viability does the source give for BEN here?
Answer: 0.854

Question: Which relative viability does the source give for HARA here?
Answer: 0.575

Question: With HCC-827 as the cell line, how does the relative viability read?
Answer: 0.526

Question: How did the relative viability turn out when NCI-H520 was run?
Answer: 0.739

Question: With LOU-NH91 as the cell line, how does the relative viability read?
Answer: 0.724

Question: How did the relative viability turn out when NCI-H2023 was run?
Answer: 0.513

Question: With A-427 as the cell line, how does the relative viability read?
Answer: 0.708

Question: With NCI-H647 as the cell line, how does the relative viability read?
Answer: 0.623

Question: With PC-3 [JPC-3] as the cell line, how does the relative viability read?
Answer: 0.628

Question: How did the relative viability turn out when NCI-H1755 was run?
Answer: 0.804

Question: With NCI-H650 as the cell line, how does the relative viability read?
Answer: 0.876

Question: With NCI-H3122 as the cell line, how does the relative viability read?
Answer: 0.223

Question: How did the relative viability turn out when NCI-H441 was run?
Answer: 0.471

Question: With NCI-H1395 as the cell line, how does the relative viability read?
Answer: 0.948

Question: How did the relative viability turn out when 201T was run?
Answer: 0.727

Question: With NCI-H1975 as the cell line, how does the relative viability read?
Answer: 0.332

Question: HOP-62 was tested. Which relative viability did it give?
Answer: 0.389

Question: With NCI-H2405 as the cell line, how does the relative viability read?
Answer: 0.548

Question: With NCI-H1355 as the cell line, how does the relative viability read?
Answer: 0.45

Question: How did the relative viability turn out when NCI-H838 was run?
Answer: 0.612

Question: How did the relative viability turn out when CAL-12T was run?
Answer: 0.352

Question: NCI-H1666 was tested. Which relative viability did it give?
Answer: 0.796

Question: With EPLC-272H as the cell line, how does the relative viability read?
Answer: 0.288

Question: NCI-H2347 was tested. Which relative viability did it give?
Answer: 0.297

Question: NCI-H1915 was tested. Which relative viability did it give?
Answer: 0.31

Question: NCI-H1437 was tested. Which relative viability did it give?
Answer: 0.609

Question: NCI-H460 was tested. Which relative viability did it give?
Answer: 0.0856

Same assay, conditions: first compound 0.01 µM

Question: Which relative viability does the source give for LU99A here?
Answer: 0.628

Question: How did the relative viability turn out when NCI-H358 was run?
Answer: 0.138

Question: How did the relative viability turn out when NCI-H322M was run?
Answer: 0.52

Question: With LXF-289 as the cell line, how does the relative viability read?
Answer: 0.675

Question: With BEN as the cell line, how does the relative viability read?
Answer: 0.897

Question: How did the relative viability turn out when HARA was run?
Answer: 0.799

Question: With HCC-827 as the cell line, how does the relative viability read?
Answer: 0.533

Question: Which relative viability does the source give for NCI-H520 here?
Answer: 0.616

Question: LOU-NH91 was tested. Which relative viability did it give?
Answer: 0.766

Question: NCI-H2023 was tested. Which relative viability did it give?
Answer: 0.437

Question: For A-427, which relative viability is on record?
Answer: 0.743

Question: Which relative viability does the source give for NCI-H647 here?
Answer: 0.543

Question: PC-3 [JPC-3] was tested. Which relative viability did it give?
Answer: 0.687

Question: Which relative viability does the source give for NCI-H1755 here?
Answer: 0.784

Question: With NCI-H650 as the cell line, how does the relative viability read?
Answer: 1.04

Question: How did the relative viability turn out when NCI-H3122 was run?
Answer: 0.229

Question: How did the relative viability turn out when NCI-H441 was run?
Answer: 0.45

Question: How did the relative viability turn out when NCI-H1395 was run?
Answer: 0.964

Question: Which relative viability does the source give for 201T here?
Answer: 0.709

Question: NCI-H1975 was tested. Which relative viability did it give?
Answer: 0.376

Question: Which relative viability does the source give for HOP-62 here?
Answer: 0.413

Question: For NCI-H2405, which relative viability is on record?
Answer: 0.601

Question: NCI-H1355 was tested. Which relative viability did it give?
Answer: 0.472

Question: How did the relative viability turn out when NCI-H838 was run?
Answer: 0.536

Question: Which relative viability does the source give for CAL-12T here?
Answer: 0.33

Question: With NCI-H1666 as the cell line, how does the relative viability read?
Answer: 0.65

Question: For EPLC-272H, which relative viability is on record?
Answer: 0.28

Question: For NCI-H2347, which relative viability is on record?
Answer: 0.284

Question: NCI-H1915 was tested. Which relative viability did it give?
Answer: 0.313

Question: Which relative viability does the source give for NCI-H1437 here?
Answer: 0.46

Question: NCI-H460 was tested. Which relative viability did it give?
Answer: 0.0422

Same assay, conditions: first compound 0.03162 µM

Question: For LU99A, which relative viability is on record?
Answer: 0.592

Question: With NCI-H358 as the cell line, how does the relative viability read?
Answer: 0.089

Question: For NCI-H322M, which relative viability is on record?
Answer: 0.542

Question: With LXF-289 as the cell line, how does the relative viability read?
Answer: 0.723

Question: For BEN, which relative viability is on record?
Answer: 0.723

Question: How did the relative viability turn out when HARA was run?
Answer: 0.471

Question: Which relative viability does the source give for HCC-827 here?
Answer: 0.509

Question: Which relative viability does the source give for NCI-H520 here?
Answer: 0.575

Question: How did the relative viability turn out when LOU-NH91 was run?
Answer: 0.766

Question: For NCI-H2023, which relative viability is on record?
Answer: 0.151

Question: A-427 was tested. Which relative viability did it give?
Answer: 0.534

Question: Which relative viability does the source give for NCI-H647 here?
Answer: 0.295

Question: With PC-3 [JPC-3] as the cell line, how does the relative viability read?
Answer: 0.632

Question: Which relative viability does the source give for NCI-H1755 here?
Answer: 0.77

Question: With NCI-H650 as the cell line, how does the relative viability read?
Answer: 0.881

Question: Which relative viability does the source give for NCI-H3122 here?
Answer: 0.185

Question: How did the relative viability turn out when NCI-H441 was run?
Answer: 0.205

Question: Which relative viability does the source give for NCI-H1395 here?
Answer: 0.971

Question: 201T was tested. Which relative viability did it give?
Answer: 0.71

Question: With NCI-H1975 as the cell line, how does the relative viability read?
Answer: 0.234

Question: How did the relative viability turn out when HOP-62 was run?
Answer: 0.411

Question: Which relative viability does the source give for NCI-H2405 here?
Answer: 0.446

Question: With NCI-H1355 as the cell line, how does the relative viability read?
Answer: 0.43

Question: For NCI-H838, which relative viability is on record?
Answer: 0.294

Question: For CAL-12T, which relative viability is on record?
Answer: 0.225

Question: NCI-H1666 was tested. Which relative viability did it give?
Answer: 0.584

Question: For EPLC-272H, which relative viability is on record?
Answer: 0.289

Question: For NCI-H2347, which relative viability is on record?
Answer: 0.281

Question: NCI-H1915 was tested. Which relative viability did it give?
Answer: 0.312

Question: NCI-H1437 was tested. Which relative viability did it give?
Answer: 0.363

Question: With NCI-H460 as the cell line, how does the relative viability read?
Answer: 0.0236

Same assay, conditions: first compound 0.1 µM

Question: With LU99A as the cell line, how does the relative viability read?
Answer: 0.635

Question: NCI-H358 was tested. Which relative viability did it give?
Answer: 0.0919

Question: Which relative viability does the source give for NCI-H322M here?
Answer: 0.498

Question: For LXF-289, which relative viability is on record?
Answer: 0.738

Question: For BEN, which relative viability is on record?
Answer: 0.968

Question: Which relative viability does the source give for HARA here?
Answer: 0.647

Question: How did the relative viability turn out when HCC-827 was run?
Answer: 0.486

Question: With NCI-H520 as the cell line, how does the relative viability read?
Answer: 0.536

Question: For LOU-NH91, which relative viability is on record?
Answer: 0.654

Question: Which relative viability does the source give for NCI-H2023 here?
Answer: 0.11

Question: Which relative viability does the source give for A-427 here?
Answer: 0.418

Question: For NCI-H647, which relative viability is on record?
Answer: 0.202

Question: Which relative viability does the source give for PC-3 [JPC-3] here?
Answer: 0.741

Question: NCI-H1755 was tested. Which relative viability did it give?
Answer: 0.88

Question: NCI-H650 was tested. Which relative viability did it give?
Answer: 0.917

Question: Which relative viability does the source give for NCI-H3122 here?
Answer: 0.264

Question: NCI-H441 was tested. Which relative viability did it give?
Answer: 0.188

Question: Which relative viability does the source give for NCI-H1395 here?
Answer: 0.867

Question: For 201T, which relative viability is on record?
Answer: 0.736

Question: NCI-H1975 was tested. Which relative viability did it give?
Answer: 0.248

Question: For HOP-62, which relative viability is on record?
Answer: 0.373

Question: With NCI-H2405 as the cell line, how does the relative viability read?
Answer: 0.584

Question: How did the relative viability turn out when NCI-H1355 was run?
Answer: 0.462

Question: How did the relative viability turn out when NCI-H838 was run?
Answer: 0.239

Question: With CAL-12T as the cell line, how does the relative viability read?
Answer: 0.125

Question: NCI-H1666 was tested. Which relative viability did it give?
Answer: 0.517

Question: How did the relative viability turn out when EPLC-272H was run?
Answer: 0.295

Question: Which relative viability does the source give for NCI-H2347 here?
Answer: 0.283

Question: With NCI-H1915 as the cell line, how does the relative viability read?
Answer: 0.303

Question: For NCI-H1437, which relative viability is on record?
Answer: 0.26
